Source: ChEMBL document CHEMBL1134402, “Atropisomeric derivatives of 2',6'-disubstituted (R)-11-phenylaporphine: selective serotonin 5-HT(7) receptor antagonists” (J Med Chem, 2001)

What was measured:
D(2) dopamine receptor = D(2) dopamine receptor (Homo sapiens, UniProt P14416); assay: Displacement of [3H]raclopride from human dopamine receptor D2A expressed in mouse Ltk cells; type: cell-based
[1] = target: T1, 5-hydroxytryptamine receptor 1A (Homo sapiens, UniProt P08908); assay: Displacement of [3H]8-OH-DPAT from human 5-hydroxytryptamine 1A receptor expressed in CHO cells; type: cell-based
T1 sequence (P08908 whole entry): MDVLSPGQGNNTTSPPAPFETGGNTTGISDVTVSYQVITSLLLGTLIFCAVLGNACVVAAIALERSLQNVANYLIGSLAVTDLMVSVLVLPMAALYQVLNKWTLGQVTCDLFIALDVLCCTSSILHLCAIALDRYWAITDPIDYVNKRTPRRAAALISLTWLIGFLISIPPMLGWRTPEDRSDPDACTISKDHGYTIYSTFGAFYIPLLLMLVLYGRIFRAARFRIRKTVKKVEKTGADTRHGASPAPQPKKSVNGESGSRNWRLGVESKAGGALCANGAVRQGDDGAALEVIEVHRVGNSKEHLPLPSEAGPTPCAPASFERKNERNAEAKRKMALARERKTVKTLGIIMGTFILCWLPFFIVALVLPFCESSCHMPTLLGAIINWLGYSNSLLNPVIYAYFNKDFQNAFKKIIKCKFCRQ

[2] = target: 5-hydroxytryptamine receptor 7 (Rattus norvegicus, UniProt P32305); assay: Displacement of [3H]5-HT from rat 5-hydroxytryptamine 7 receptor expressed in CHO cells; type: cell-based
5-hydroxytryptamine receptor 7, sequence (P32305 whole entry): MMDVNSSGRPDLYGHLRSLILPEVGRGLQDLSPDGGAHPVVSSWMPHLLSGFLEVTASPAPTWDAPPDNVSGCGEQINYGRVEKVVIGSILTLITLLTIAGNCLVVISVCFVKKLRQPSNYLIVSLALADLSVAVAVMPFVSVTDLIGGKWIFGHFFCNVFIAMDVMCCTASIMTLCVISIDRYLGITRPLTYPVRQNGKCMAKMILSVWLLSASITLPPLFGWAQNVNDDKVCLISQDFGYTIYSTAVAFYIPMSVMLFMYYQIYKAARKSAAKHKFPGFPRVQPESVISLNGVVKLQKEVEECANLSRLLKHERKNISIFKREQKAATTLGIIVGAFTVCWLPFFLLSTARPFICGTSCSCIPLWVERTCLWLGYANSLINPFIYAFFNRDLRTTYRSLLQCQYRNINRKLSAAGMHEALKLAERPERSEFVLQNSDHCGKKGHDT

[3] = target: 5-hydroxytryptamine receptor 7 (Rattus norvegicus) (UniProt P32305); assay: Percent inhibition of 5-HT7-induced stimulation of cAMP production in CHO cells expressing rat 5-HT receptors at a concentration of 100 nM; type: cell-based
5-hydroxytryptamine receptor 7 (Rattus norvegicus), sequence (P32305 whole entry): as above

[4] = target: 5-hydroxytryptamine receptor 7 (Rattus norvegicus) (UniProt P32305); assay: Percent inhibition of 5-HT7-induced stimulation of cAMP production in CHO cells expressing rat 5-HT receptors at a concentration of 10000 nM; type: cell-based
[5] = target: 5-hydroxytryptamine receptor 7 (Rattus norvegicus) (UniProt P32305); assay: Percent inhibition of 5-HT7-induced stimulation of cAMP production in CHO cells expressing rat 5-HT receptors at a concentration of 1 nM; type: cell-based
[6] = target: 5-hydroxytryptamine receptor 7 (Rattus norvegicus) (UniProt P32305); details: CHO; 1 nM
[7] = target: 5-hydroxytryptamine receptor 7 (Rattus norvegicus) (UniProt P32305); details: CHO; 10000 nM
[8] = target: 5-hydroxytryptamine receptor 7 (Rattus norvegicus) (UniProt P32305); details: CHO; 100 nM
[9] = target: 5-hydroxytryptamine receptor 7 (Rattus norvegicus) (UniProt P32305); assay: Percent inhibition of 5-HT7-induced stimulation of cAMP production in CHO cells expressing rat 5-HT receptors by 100 nM 5-HT.; type: cell-based
[10] = target: 5-hydroxytryptamine receptor 7 (Rattus norvegicus) (UniProt P32305); assay: Percent inhibition of 5-HT7-induced stimulation of cAMP production in CHO cells expressing rat 5-HT receptors by 10000 nM 5-HT.; type: cell-based
[11] = target: 5-hydroxytryptamine receptor 7 (Rattus norvegicus) (UniProt P32305); assay: Percent inhibition of 5-HT7-induced stimulation of cAMP production in CHO cells expressing rat 5-HT receptors by 1 nM 5-HT.; type: cell-based

D(2) dopamine receptor, sequence (P14416 whole entry): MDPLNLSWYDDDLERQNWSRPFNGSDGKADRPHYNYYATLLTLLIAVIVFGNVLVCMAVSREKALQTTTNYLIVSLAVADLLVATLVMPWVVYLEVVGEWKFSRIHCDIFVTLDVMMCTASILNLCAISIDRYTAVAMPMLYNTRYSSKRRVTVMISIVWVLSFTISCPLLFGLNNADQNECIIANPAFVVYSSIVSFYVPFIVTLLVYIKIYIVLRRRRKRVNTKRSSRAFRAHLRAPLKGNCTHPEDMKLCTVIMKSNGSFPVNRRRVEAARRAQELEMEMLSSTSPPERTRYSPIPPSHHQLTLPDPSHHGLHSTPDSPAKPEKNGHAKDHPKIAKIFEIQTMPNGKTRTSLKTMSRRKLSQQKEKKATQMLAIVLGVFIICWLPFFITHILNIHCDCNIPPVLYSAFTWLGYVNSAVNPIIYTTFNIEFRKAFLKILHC

SMILES | Ki (D(2) dopamine receptor) [nM] | Ki [1] [nM] | Ki [2] [nM] | other results
O=C1Nc2cccc3c2[C@]1(CCCCN1CC=C(c2ccccc2)CC1)CCC3 | 105 | 170 | 3.31 | 
CN1CCc2cccc3c2[C@H]1Cc1cccc(-c2ccccc2)c1-3 |  | 1.8 | 9.78 | inhibition [3]: 30%; inhibition [4]: 100%; inhibition [5]: 23%
CN1CCc2cccc3c2[C@H]1Cc1cccc(-c2c(O)cccc2O)c1-3 | > 1000 | 139 | 36.2 | 
CN1CCc2cccc3c2[C@H]1Cc1cccc(-c2c(OS(=O)(=O)C(F)(F)F)cccc2OS(=O)(=O)C(F)(F)F)c1-3 | 2260 | > 10000 | 708 | 
COc1cccc(OC)c1-c1cccc2c1-c1cccc3c1[C@@H](C2)N(C)CC3 | 2030 | 554 | 13 | 
Cc1cccc(O)c1-c1cccc2c1-c1cccc3c1[C@@H](C2)N(C)CC3 (stereo in doubt; form 1) [listing 1 of 2 here] | 2500 | 48.8 | 23 | 
Cc1cccc(C#N)c1-c1cccc2c1-c1cccc3c1[C@@H](C2)N(C)CC3 (stereo in doubt; form 1) [listing 1 of 2 here] | 2470 | 778 | 20.8 | 
Cc1cccc(C#N)c1-c1cccc2c1-c1cccc3c1[C@@H](C2)N(C)CC3 (stereo in doubt; form 1) [listing 2 of 2 here] |  |  |  | inhibition [6]: 21%; inhibition [7]: 100%; inhibition [8]: 42%
Cc1cccc(O)c1-c1cccc2c1-c1cccc3c1[C@@H](C2)N(C)CC3 (stereo in doubt; form 1) [listing 2 of 2 here] |  |  |  | inhibition [9]: 72%; inhibition [10]: 100%; inhibition [11]: 11%
Cc1cccc(O)c1-c1cccc2c1-c1cccc3c1[C@@H](C2)N(C)CC3 (stereo in doubt; form 2) [listing 1 of 2 here] | 3380 | 319 | 43.1 | 
Cc1cccc(C#N)c1-c1cccc2c1-c1cccc3c1[C@@H](C2)N(C)CC3 (stereo in doubt; form 2) | 498 | 142 | 3.79 | 
Cc1cccc(O)c1-c1cccc2c1-c1cccc3c1[C@@H](C2)N(C)CC3 (stereo in doubt; form 2) [listing 2 of 2 here] |  |  |  | inhibition [3]: 43%; inhibition [4]: 100%; inhibition [5]: 21%
Cc1cccc(S(=O)(=O)N(C)[C@H](C)CCN2CCC(C)CC2)c1 [SB-258719] |  | > 7940 | 31.6 | 
